Where no end group is shown, it is not given here.
Legend:
Type in all cases: cell-based, human
[1] = system: T-cells from PMBCs from healthy donors; experiment: T-cell proliferation after induction of T-cells with fsp2 (Example 5); conditions: one round of in vitro stimulation, FIG. 13
Method: A similar protocol to that set out in Example 4 was used to test the immunogenicity of fsp6 (SEQ ID NOs: 24) and fsp7 (SEQ ID NO: 123). Fsp2 (SEQ ID NO: 21; 10 μM) was used to induce T-cells from PMBCs isolated from fresh buffy coats from four healthy donors. At day 14 after induction, a T-cell proliferation assay was carried out as in Example 4, using fsp2 (SEQ ID NO: 21), fsp6 (SEQ ID NO: 24) and fsp7 (SEQ ID NO: 123) as test peptides. The T-cell proliferation results after one round of in vitro stimulation are presented as stimulation index (SI) in FIG. 13. […] It is also expected, in view of the results shown in FIGS. 11 and 12, that a peptide having the sequence of fsp6 (SEQ ID NO: […]) but having a C-to-G amino acid substitution corresponding to that in fsp2 is also immunogenic and is useful as a vaccine or treatment against cancer.

[2] = system: T-cells from PBMC bulk cultures of healthy donors; experiment: Peptide-specific T-cell proliferation after stimulation of PBMC with cocktail fsp2+fsp8+fsp9 (Example 7); conditions: FIGS. 16-18; for T-cell response: three donors; for T-cell response to the peptide alone: after only one round of stimulation with the peptide mixture
Method: PBMCs isolated from buffy coats from four healthy donors (obtained from a blood bank) were suspended in complete CellGro DC medium to 15*10^6 cells/ml and diluted to 4*10^6 cells/ml (Table 14).
On day 1, 1 ml of PBMC suspension (4×10^6 cells/ml) from each donor was transferred to wells of 24-well plates (4*10^6 cells per well) and 60 μl of the peptide cocktail (fsp2+fsp8+fsp9) stock solution (166.67 μM/each peptide) was added to each well. The plates were incubated in a cell incubator for 14 days. IL-2 and IL-7 was added on day 3 (0.50 ml DC medium containing 60 U/ml IL-2 and 15 ng/ml IL-7). The cells were inspected daily and DC medium with cytokines (IL-2, IL7) was refreshed according to in house laboratory routines.
The in vitro stimulation of bulk cultures was repeated a further two times (i.e. a total of three stimulations) using PBMCs harvested after the preceding round of in vitro stimulation. Peptide specific T-cell proliferation was tested on day 14, after each round of stimulation, such that T-cell proliferation was tested on days 14, 28 and 42 after the first round of stimulation.
The cells from the bulk cultures were harvested (5 minutes at 300×g centrifugation) and re-suspended in DC medium (5 ml). An aliquot of the 5 ml resuspension was diluted 5 times and the T-cells counted in order to calculate the volume required to provide 5×10^4 cells per well for the proliferation assay. T-cells from each donor were transferred (triplicates) to wells of 96-well plates (5×10^4 cells per well) together with autologous, irradiated (30 Gy for 8 minutes) PBMCs (5×10^4 cells per well) and test peptide(s) (final concentration 10 μM/each peptide). Negative controls were wells without test peptide(s) and positive controls were wells with SEC-3 (0.1 μg/ml) without test peptide(s). The cells (plates) were incubated for 48 hours (37° C./5% CO2). After 48 hours, 20 μL of 3H-Thymidine (3.7×104 Bq) was added to the cells and incubation was continued for 17 hours. The cells were harvested (Unifilters using the Filtermate 196 Harvester) and dried on the filters for approx. 4.5 hours at 45° C. The cells were counted (CPM) by using the standard in-house laboratory protocol (TopCount Packard microplate scintillation beta counter and run programme).
Peptide-specific T-cell proliferation was measured after 14 days of stimulation of PBMC bulk cultures with a peptide cocktail containing fsp2, fsp8 and fsp9 (10 μM each peptide). Proliferation induced by each of the single peptides and the peptide cocktail was tested at a concentration of […] (each peptide).
Peptide-specific T-cell proliferation was measured after 14 days of re-stimulation of PBMC with a peptide cocktail containing fsp2, fsp8 and fsp9 ([…] each peptide). T-cell proliferation induced by each of the single peptides and the peptide cocktail was tested. The single peptides were tested at a concentration of 10 μM. The peptide cocktail was tested using two different amounts of each peptide in the cocktail, namely, a peptide cocktail containing […] each peptide and a peptide cocktail containing 3.33 μM each peptide.
Peptide-specific T-cell proliferation was measured after 14 days of a further re-stimulation of PBMC with a peptide cocktail containing fsp2, fsp8 and fsp9 ([…] each peptide). T-cell proliferation induced by each of the single peptides and the peptide cocktail was tested. The single peptides were tested at a concentration of 10 μM. […]

[3] = system: T cells (PBMC) from healthy donors; experiment: T-cell proliferation (3H-thymidine, SI) after in vitro stimulation of PBMC with cocktail fsp2+fsp4 (Example 4); design: T cell proliferation (stimulation index, SI): immunogenicity: dose or concentration left out as unconfirmed
Method: Fresh buffy coats from four healthy donors were obtained from a blood bank.
Peripheral blood mononuclear cells (PBMC) isolated from fresh buffy coats from four healthy donors were counted and suspended in DC medium to 15*10^6 cells/ml, and subsequently diluted with DC-medium to 4*10^6 cells/ml (Table 6).
Four 24-well plates were used for each donor, with 4*10^6 cells per well (each well has a volume of 1 ml).
Peptide cocktail: Solution of peptides fsp2+fsp4, containing […] of each peptide. 40 μl peptide solution was added to each well.
The plates were incubated in a cell incubator for 14 days (37° C., 5% CO2). IL-2 and IL-7 were added on day 3. The cells were inspected daily.
Test peptides: fsp2+fsp4 (SEQ ID NOs: 21 and 23), fsp1 (SEQ ID NO: 20), fsp2 (SEQ ID NO: 21), fsp3 (SEQ ID NO: 22), fsp4 (SEQ ID NO: 23), fsp5 (SEQ ID NO: 19).
Negative controls: T cells, T cells+APC (without addition of test peptides)
Cells and reagents were added to plate wells (in triplicate) as described in Tables 8 and 9 below. The total volume added to each well was 0.20 ml. • T cells (PBMC): 50 000 cells/well (0.25*10^6 cells/ml) • APC: Irradiated (30 Gy, 8 minutes) autologous feeder cells: 50 000 cells/well • (fspx): 0.2 nmol peptide/well (each peptide), concentration: […] peptide. (fsp was dissolved in DMSO before dilution to correct concentration)
The plates were incubated in a cell incubator for 48 hours (37° C., 5% CO2).
After incubation for 48 hours, 20 μl 3H-tThymidine solution (5 Ci/ml) was added to each well and the plates were incubated for approximately 17 hours (37° C., 5% CO2).
After 17 hours the cells were harvested (Unifilters) and dried on the filters at 45° C. until completely dry. After covering the bottom of the Unifilters with adhesive covers (delivered with the Unifilters) 25 μl micro scintillation liquid was added to each well, the plate was covered with TopSeal and 3H-Thymidine uptake was measured as counts per minute (CPM) using a microplate scintillation counter.
The T cell proliferation results after the first round of in vitro stimulation with the cocktail of fsp2 and fsp4 peptides are presented as stimulation index (SI) in FIG. 10. SI=mean CPM (triplicates) of (T cells+APC+test peptide(s)) divided by mean CPM (triplicates) of (T cells+APC). SI>1 indicates an increase in T-cell proliferation and SI 2 is a clear sign of immunogenicity.
PBMCs harvested after the first in vitro stimulation were re-stimulated in vitro according to the protocol set out above, with 2×10^6 cells per well. T-cell proliferation was tested according to the protocol set out above.

[4] = system: T-cells from PMBCs of healthy donors; experiment: T-cell proliferation after stimulation of PMBCs with mixture fsp17, fsp15 and fsp16 (Example 9)
Method: Using a similar procedure to that used in Examples 4 and 7 above, PMBCs from four healthy donors were stimulated in vitro with a peptide mixture containing equimolar amounts (10 uM) of fsp17 (SEQ ID NO: 126), fsp15 (SEQ ID NO: 127) and fsp16 (SEQ ID NO: 128), which are shown in Table 15, below. These peptides have the non-chiral amino acid glycine at their C-terminal, which can serve as a linker for conjugation of the peptides to other molecules. It is expected that this C-terminal glycine will not create any new T-cell epitopes which will change the specificity of the induced T-cells.
After one round (14 days) of in vitro stimulation, T-cells were harvested and tested for recognition of the peptide mixture or individual peptides, using a concentration of 10 μM of each peptide. T-cell proliferation was measured as counts per minute (CPM) after uptake of ^3H-thymidine in a standard T cell proliferation assay.
The PMBCs from the four healthy donors underwent a second round of in vitro stimulation, and T-cells were again harvested and tested for proliferation against the peptide mixture and the individual peptides.

[5] = system: T-cells from PMBCs of healthy donors; experiment: T-cell proliferation after stimulation of PMBCs with mixture fsp10, fsp11 and fsp13 (Example 8); conditions: FIG. 19; for T-cell response (proliferation, CPM): donor 1, one round of in vitro stimulation (14 days), 10 μM
Method: Using a similar procedure to that used in Examples 4 and 7 above, PMBCs from four healthy donors were stimulated in vitro with a peptide mixture containing equimolar amounts (10 uM) of fsp10 (SEQ ID NO: 28), fsp11 (SEQ ID NO: 29) and fsp13 (SEQ ID NO: 31).
After one round of stimulation (14 days), T-cells were harvested and tested for recognition of the peptide mixture, using single peptide concentrations of 10 μM. T-cell proliferation was measured as counts per minute (CPM) after uptake of ^3H-thymidine in a standard T cell proliferation assay.
The PMBCs from the four healthy donors underwent a second round of in vitro stimulation, and T-cells were again harvested and tested for proliferation against the peptide mixture and the individual peptides. […] While it has, in the past, been considered that a SI value of greater than 2 is the criterion for indicating a T-cell response in a T-cell proliferation assay, this is only the case in subjects who have been vaccinated prior to the T-cell proliferation assay. Where a healthy subject has not been vaccinated before the T-cell proliferation assay (as in the present T-cell proliferation assay), it is not expected that a SI value of 2 or greater will be achieved. Therefore, in non-vaccinated, healthy subjects, an increase in the SI value above 1 is indicative of a T-cell response.

[6] = second round of in vitro stimulation, FIG. 22

Row | Substance | relative immunogenicity [1] | T-cell response [2] | T-cell response (proliferation, CPM) [5] | also measured
1 | KCIMKEKKSLVRLSSCV (listed as Homo sapiens) [fsp6, peptide of −1a frameshifted TGFβR2] | less immunogenic than fsp2 |  |  | T-cell activation (SI) ([1]; day 14): capable of activating T-cells
2 | KGIMKEKKSLVRLSSCVPVALMSA (not fully specified) [fsp2, modified peptide of −1a frameshifted TGFβR2] | much more immunogenic than fsp7 | able to induce a T-cell response |  | relative immunogenicity ([3]; FIGS. 10 and 11, compared with fsp3 and fsp4): more immunogenic than peptides which do not comprise amino acids from the wild-type sequence of TGFβR2; T cell proliferation (stimulation index, SI): immunogenicity ([3]; first and second round of in vitro stimulation with cocktail of fsp2 and fsp4, four healthy donors, FIGS. 10-12): immunogenic and can activate T-cells
3 | KGIMKEKKSLVRLSSCVPVALMSAMTG (not fully specified) [fsp17, modified peptide of −1a frameshifted TGFβR2] |  |  |  | T-cell induction (proliferation) [4, 6]: T-cells were induced
4 | KKKGRRNRIPAVLRTEGEPLHTPSVGMRETG (listed as Homo sapiens) [fsp15, peptide of −1a frameshifted ASTE1] |  |  |  | T-cell induction (proliferation) ([4]; one round (14 days) of in vitro stimulation, 10 μM, FIG. 21): T-cells are induced; T-cell induction (proliferation) [4, 6]: T-cells were induced
5 | KKTLRNHLFLIRWIILTFLQKILK (listed as Homo sapiens) [fsp10, peptide of −1a frameshifted KIAA2018] |  |  | did not stimulate T-cells | 
6 | KTILKKAGIGMCVKVSSIFFINKQK (listed as Homo sapiens) [fsp9, peptide of −1a frameshifted TAF1β] |  | able to induce a T-cell response |  | T-cell response to the peptide alone [2]: induces a T-cell response
7 | RNRIPAVLRTEGEPLHTPSVGMRET (listed as Homo sapiens) [fsp8, peptide of −1a frameshifted ASTE1] |  | able to induce a T-cell response |  | T-cell response to the peptide alone [2]: induces a T-cell response
8 | SCPLRDLQTLWPILALISMSSIWGTMFS (listed as Homo sapiens) [fsp11, peptide of −1a frameshifted SLC22A9] |  |  | induced T-cell responses | induction of T-cells relative to mixture of fsp11 and fsp13 ([5]; donor 1, one round): greater induction of T-cells than the mixture of fsp11
9 | STCPTYVKGSPSCPLRDLQ (listed as Homo sapiens) [fsp13, peptide of −1a frameshifted SLC22A9] |  |  | did not stimulate T-cells | 
10 | fsp7: peptide of −1a frameshifted TGFβR2; same sequence as fsp2 but truncated at the N-terminus (VRLSSCVPVALMSA; listed as Homo sapiens) | both fsp6 and fsp2 are much more immunogenic than fsp7 |  |  | 

Source: US20230203130A1, “A PEPTIDE COCKTAIL” (Hubro Therapeutics AS, priority 2020, published 2023)
